Marks after values point to notes of the source that are not given here. Square brackets hold non-standard residues; d marks the D form. Ends that are not written are not given here. Hyp = O=C(O)[C@@H]1C[C@@H](O)CN1

The test system of test [1] is D93 binding to human denatured-collagen IV. The test can be described thus: Competition ELISA: synthetic peptides blocking D93 binding to heat denatured collagen IV. The protocol: (§1) The ELISA was conducted as follows: wells of a 96-well microtiter plate (Immulon, 4 HBX flat-bottomed, Thermo Electron Corporation, Waltham, Mass.) were coated with 100 μL/well of dn-collagen IV at 10 μg/mL in Phosphate Buffered Saline (PBS) overnight at 4° C. The plate was washed 3 times (3×) with PBS containing 0.05% (v/v) Tween-20 (PBST) using an automated plate washer.
(§2) The plate was blocked by adding 300 μL/well of 1% BSA (w/v) in PBS for 1 hour at 25° C. followed by washing 3× in PBST as above.
(§3) Solutions of D93 or HUI77 were prepared with various concentrations of peptide or antibody inhibitor and incubate for 15 minutes. D93 or HUI77 was prepared at 200 ng/mL in 1% BSA/PBS.
(§4) For antibody blocking studies using synthetic peptides: peptide inhibitor stock solutions were prepared at 2 mM, 0.2 mM, 0.02 mM, and 0.002 mM in 1% BSA/PBS. 500 μL of a 2 mM peptide solution in 1% BSA/PBS was prepared and diluted 1:10 in 500 μL a total of three times to make peptide inhibitor concentrations.
(§5) 200 μL of D93 or HUI77 at 200 ng/mL solution was combined with 200 μL of peptide or antibody inhibitor solution and incubated for 15 minutes at room temperature.
(§6) D93 or HUI77 with various concentrations of inhibitors (2 mM, 0.2 mM, 0.02 mM, and 0.002 mM) were added to microplate wells and incubated for 1 hour at 25° C. The plate was washed 3× in PBST as above.
(§7) To each microtiter plate well, 100 μL of diluted anti-human IgG or anti-mouse IgM conjugated to horseradish peroxidase (HRP) in PBST was added and incubated for one hour at 25° C.: (a) for D93: Goat anti-human IgG-HRP (Jackson ImmunoResearch, Catalog No. 109-035-088) was used at 1:20,000 and (b) for HUI77: Goat anti-mouse IgM-HRP was used at 1:4,000. Plates were washed 3× in PBST as above.
(§8) Tetramethylbenzidine (TMB) substrate (100 μL; Pierce Chemicals)) was added to wells and the plates were allowed to develop at room temperature for 15 minutes in the dark. Substrate development was stopped by adding 50 μL/well of 2N H2SO4. The microtiter […] plates were read at 450 nm within five minutes of adding the H2SO4. Reactivity was measured with a microplate reader (Molecular Devices, Sunnyvale, Calif.) at a wavelength of 450 nm and analyzed using SOFTMax® PRO4.0 (Molecular Devices). All samples were tested in triplicate.
(§9) Individual peptides with amino acid substitutions and deletions were also synthesized based on the primary and secondary peptide arrays. […] The inhibitory activity of the individual peptides was tested by ELISA as previously described to measure binding of D93 or HUI77 to denatured collagen where peptides and antibodies were prepared at a 2× concentration and pre-incubated for 15 minutes prior to adding to microtiter plates coated with dn-collagen.
(§10) 96-well plates were coated with 100 μL/well of denatured (dn) collagen IV at 10 μg/mL in phosphate buffered saline (PBS) overnight at 4° C. followed by washing the plates in an automated plate washer 3 times in PBS containing 0.05% (v/v) Tween-20 (PBST). Non-specific binding was prevented by blocking the wells by adding 300 μL/well of 1% bovine serum albumin (BSA) (w/v) in PBS for 1 hour (hr) at 25° C. The plates were washed as above.
(§11) Solutions of D93 and HUI77 antibodies were prepared with various concentrations of inhibitor and incubated for 15 minutes. Briefly, 20 mLs of D93 or HUI77 were prepared at 200 ng/mL in 1% BSA/PBS. Solutions of peptide inhibitors (2 mM, 0.2 mM, […]) were prepared in 1% BSA/PBS. Equal volumes of antibodies and peptide inhibitors were combined: 200 μL of D93 or HUI77 (200 ng/mL solution) with 200 μL of each peptide solution.
(§12) 100 μL/well of D93 or HUI77 at 100 ng/mL with various concentrations of inhibitors were added to the wells in triplicate and incubated for 1 hour at 25° C. The plates were washed as described above.
(§13) 100 μL/well of secondary horseradish peroxidase (HRP)-conjugated antibody in PBST was added to each well and incubated for 1 hour (hr) at 25° C. […]

For test [2], the system named is HUI77 binding to denatured collagen IV. The test can be described thus: Competition ELISA: synthetic peptides blocking HUI77 binding to heat denatured collagen IV. Further details: species or system human. The protocol:
as §1, §2, §3, §4, §5, §6, §7, §8, §9, §10, §11, §12, §13

[3] abbreviates: peptide inhibitor concentration 1 μM, average of two studies, vs 1% BSA/PBS alone.
The mark [4] stands for this setting: peptide inhibitor concentration 10 μM, average of two studies, vs 1% BSA/PBS alone.
Where [5] appears, read: peptide inhibitor concentration 100 μM, average of two studies, vs 1% BSA/PBS alone.
[6] abbreviates: peptide inhibitor concentration 1000 μM, average of two studies, vs 1% BSA/PBS alone.
The mark [7] stands for this setting: peptide inhibitor concentration 10 μM, average of two studies.
Where [8] appears, read: peptide inhibitor concentration 100 μM, average of two studies.
Where [9] appears, read: peptide inhibitor concentration 1000 μM, average of two studies.
Setting [10] is: peptide inhibitor concentration 10 μM, asterisk (*): data from a separate assay.
Setting [11] is: peptide inhibitor concentration 100 μM, asterisk (*): data from a separate assay.
The mark [12] stands for this setting: peptide inhibitor concentration 1000 μM, asterisk (*): data from a separate assay.

“L-Hyp-G-F-Hyp-G (L[Hyp]GF[Hyp]G) [SEQ ID NO: 23]”: the “% INHIBITION OF BINDING OF D93 TO HUMAN DENATURED-COLLAGEN IV” value came out at 10.5% in test [1] (setting [3]), 6% in test [1] (setting [4]), 8% in test [1] (setting [5]) and 32% in test [1] (setting [6]). The figures for the “% INHIBITION OF BINDING OF HUI77 TO DENATURED COLLAGEN IV” value in test [2] (setting [7]), in test [2] (setting [8]) and in test [2] (setting [9]) were 7%, 14.5% and 75%, respectively.
In the case of “L-Hyp-G-P-Hyp-G (L[Hyp]GP[Hyp]G) [SEQ ID NO: 24]”, the “% INHIBITION OF BINDING OF D93 TO HUMAN DENATURED-COLLAGEN IV” value in test [1] (setting [3]) was determined as 6.5%; in test [1] (setting [4]) it was 12%; in test [1] (setting [5]) it was 52.5%; in test [1] (setting [6]), 90%. The “% INHIBITION OF BINDING OF HUI77 TO DENATURED COLLAGEN IV” value in test [2] (setting [7]) is 3%; in test [2] (setting [8]), 8%; in test [2] (setting [9]), 64%.
Consider “LPGFPG [SEQ ID NO: 38, reference compound]”, for which the “% INHIBITION OF BINDING OF D93 TO HUMAN DENATURED-COLLAGEN IV” value in test [1] (peptide inhibitor concentration 1 μM, asterisk (*): data from a separate assay) is 5.4* %; in test [1] (setting [10]), 7.8* %; in test [1] (setting [11]), 8.3* %; in test [1] (setting [12]), 11.6* %. The “% INHIBITION OF BINDING OF HUI77 TO DENATURED COLLAGEN IV” value is on record as 10.2* % in test [2] (setting [10]), 0* % in test [2] (setting [11]) and 3.7* % in test [2] (setting [12]).
Take “LPGFPGC [SEQ ID NO: 37, reference compound]”: the “% INHIBITION OF BINDING OF D93 TO HUMAN DENATURED-COLLAGEN IV” value was determined as 8% in test [1] (setting [3]), 3.5% in test [1] (setting [4]), 1% in test [1] (setting [5]) and 6.5% in test [1] (setting [6]). The figures for the “% INHIBITION OF BINDING OF HUI77 TO DENATURED COLLAGEN IV” value in test [2] (setting [7]), in test [2] (setting [8]) and in test [2] (setting [9]) were 7%, 7.5% and 8.5%, respectively.
Consider LPGLPG (L[Hyp]GL[Hyp]G) [SEQ ID NO: 25], for which the “% INHIBITION OF BINDING OF D93 TO HUMAN DENATURED-COLLAGEN IV” value was found to be 8% in test [1] (setting [3]), 6.5% in test [1] (setting [4]), 6.5% in test [1] (setting [5]) and 46.5% in test [1] (setting [6]). In addition, the results for the “% INHIBITION OF BINDING OF HUI77 TO DENATURED COLLAGEN IV” value in test [2] (setting [7]), in test [2] (setting [8]) and in test [2] (setting [9]) were 6%, 9.5% and 17.5%, respectively.
“LPGPPGPPG (LPGP[Hyp]GP[Hyp]G) [SEQ ID NO: 21]”: the “% INHIBITION OF BINDING OF D93 TO HUMAN DENATURED-COLLAGEN IV” value in test [1] (peptide inhibitor concentration 1 μM, average of two studies, vs 1% BSA/PBS alone, listed as 20 (21), 1 µM) was found to be 13%; in test [1] (peptide inhibitor concentration 10 μM, average of two studies, vs 1% BSA/PBS alone, listed as 20 (21), 10 µM), 35.5%; in test [1] (peptide inhibitor concentration 100 μM, average of two studies, vs 1% BSA/PBS alone, listed as 20 (21), 100 µM), 85.5%; in test [1] (peptide inhibitor concentration 1000 μM, average of two studies, vs 1% BSA/PBS alone, listed as 20 (21), 1000 µM), 92.5%. Moreover, the “% INHIBITION OF BINDING OF HUI77 TO DENATURED COLLAGEN IV” value in test [2] (setting [7]) worked out at 6.5%; in test [2] (peptide inhibitor concentration 100 μM, average of two studies, listed as 20 (21), 100 µM), 18%; in test [2] (peptide inhibitor concentration 1000 μM, average of two studies, listed as 20 (21), 1000 µM), 86%.
As for LPGPPGPPG [SEQ ID NO: 22], the “% INHIBITION OF BINDING OF D93 TO HUMAN DENATURED-COLLAGEN IV” value in test [1] (peptide inhibitor concentration 1 μM, average of two studies, vs 1% BSA/PBS alone, listed as 18 (22), 1 µM) worked out at 6%; in test [1] (peptide inhibitor concentration 10 μM, average of two studies, vs 1% BSA/PBS alone, listed as 18 (22), 10 µM), 5%; in test [1] (peptide inhibitor concentration 100 μM, average of two studies, vs 1% BSA/PBS alone, listed as 18 (22), 100 µM), 3%; in test [1] (peptide inhibitor concentration 1000 μM, average of two studies, vs 1% BSA/PBS alone, listed as 18 (22), 1000 µM), 17.5%. For the same substance, the “% INHIBITION OF BINDING OF HUI77 TO DENATURED COLLAGEN IV” value in test [2] (peptide inhibitor concentration 100 μM, average of two studies, listed as 18 (22), 100 µM) stood at 9%; in test [2] (peptide inhibitor concentration 1000 μM, average of two studies, listed as 18 (22), 1000 µM), 6%.
Turning to “LPGPPGPPGP (LPGP[Hyp]GP[Hyp]GP) [SEQ ID NO: 20]”, the “% INHIBITION OF BINDING OF D93 TO HUMAN DENATURED-COLLAGEN IV” value in test [1] (setting [3]) was found to be 12%; in test [1] (setting [4]), 41.5%; in test [1] (setting [5]), 89%; in test [1] (setting [6]), 92.5%. Also, the “% INHIBITION OF BINDING OF HUI77 TO DENATURED COLLAGEN IV” value in test [2] (setting [7]) worked out at 10%; in test [2] (setting [8]), 14%; in test [2] (setting [9]), 73%.
On to LPGPPGPPGPY [SEQ ID NO: 18], for which the “% INHIBITION OF BINDING OF D93 TO HUMAN DENATURED-COLLAGEN IV” value in test [1] (peptide inhibitor concentration 1 μM, average of two studies, vs 1% BSA/PBS alone, listed as 2 (18), 1 µM) is on record as 6%; in test [1] (peptide inhibitor concentration 10 μM, average of two studies, vs 1% BSA/PBS alone, listed as 2 (18), 10 µM) it was 2%; in test [1] (peptide inhibitor concentration 100 μM, average of two studies, vs 1% BSA/PBS alone, listed as 2 (18), 100 µM), 7%; in test [1] (peptide inhibitor concentration 1000 μM, average of two studies, vs 1% BSA/PBS alone, listed as 2 (18), 1000 µM) it was 46%. Besides, the “% INHIBITION OF BINDING OF HUI77 TO DENATURED COLLAGEN IV” value came to 5.5% in test [2] (peptide inhibitor concentration 10 μM, average of two studies, listed as 2 (18), 10 µM); 6.5% in test [2] (peptide inhibitor concentration 100 μM, average of two studies, listed as 2 (18), 100 µM); 4.5% in test [2] (peptide inhibitor concentration 1000 μM, average of two studies, listed as 2 (18), 1000 µM).

For the origin of these results see US20080008707A1, “Denatured collagen peptides and uses thereof” (Cell-Matrix, Inc., priority 2006, published 2008).
